In US12077483B2, “Modified amine lipids” (Intellia Therapeutics, Inc., priority 2018, dated 2024):

Assays:
[1] = pKa of amine lipid by TNS fluorescence; format: physicochemical; conditions: probe TNS (6-(p-toluidino)-2-naphthalenesulfonic acid sodium salt), unformulated amine lipid in ethanol, sodium phosphate buffers -9.0
Method: The pKa of each amine lipid was determined according to the method in Jayaraman, et al. (Angewandte Chemie, 2012) with the following adaptations. The pKa was determined for unformulated amine lipid in ethanol. Lipid stock solutions (2.94 mM) were diluted into Sodium Phosphate Buffers (0.1 M, Boston Bioproducts) of different pH (pH-range: 4.5-9.0) yielding a final lipid concentration of approx. 100 μM. The test samples were supplemented with TNS {6-(p-Toluidino)-2-naphthalenesulfonic acid sodium salt}, incubated and the fluorescence intensity was measured using excitation and emission wavelengths of 321 nm and 448 nm, respectively. The recorded data were normalized and the respective pKa values were derived from sigmoidal fitting.

[2] = LNP average particle size and polydispersity by dynamic light scattering; format: physicochemical; conditions: LNP with the compound as amine lipid
Text: The LNPs have a size of about 1 to about 1,000 nm, about 10 to about 500 nm, about 20 to about 500 nm, in a sub-embodiment about 50 to about 400 nm, in a sub-embodiment about 50 to about 300 nm, in a sub-embodiment about 50 to about 200 nm, and in a sub-embodiment about 50 to about 150 nm, and in another sub-embodiment about 60 to about 120 nm. Preferably, the LNPs have a size from about 60 nm to about 100 nm. The average sizes (diameters) of the fully formed LNP, may be measured by dynamic light scattering on a Malvern Zetasizer. The LNP sample is diluted in phosphate buffered saline (PBS) so that the count rate is approximately 200-400 kcps. The data is presented as a weighted average of the intensity measure.
In some embodiments, the LNPs have a size of about 75 to about 120 nm. In some embodiments, the LNPs have a size of about 75 to about 100 nm. Unless indicated otherwise, all sizes referred to herein are the average sizes (diameters) of the fully formed nanoparticles, as measured by dynamic light scattering on a Malvern Zetasizer. The nanoparticle sample is diluted in phosphate buffered saline (PBS) so that the count rate is approximately 200-400 kcps. The data is presented as a weighted-average of the intensity measure (Z-average diameter).
Dynamic Light Scattering (“DLS”) is used to characterize the polydispersity index (“pdi”) and size of the LNPs of the present disclosure. DLS measures the scattering of light that results from subjecting a sample to a light source. PDI, as determined from DLS measurements, represents the distribution of particle size (around the mean particle size) in a population, with a perfectly uniform population having a PDI of zero. Electropheretic light scattering is used to characterize the surface charge of the LNP at a specified pH. The surface charge, or the zeta potential, is a measure of the magnitude of electrostatic repulsion/attraction between particles in the LNP suspension. Asymmetric-Flow Field Flow Fractionation—Multi-Angle Light Scattering (AF4-MALS) is used to separate particles in the composition by hydrodynamic radius and then measure the molecular weights, hydrodynamic radii and root mean square radii of the fractionated particles. […] Nanoparticle tracking analysis (NTA, Malvern Nanosight) can be used to determine particle size distribution as well as particle concentration. LNP samples are diluted appropriately and injected onto a microscope slide. A camera records the scattered light as the particles are slowly infused through field of view. After the movie is captured, the Nanoparticle Tracking Analysis processes the movie by tracking pixels and calculating a diffusion coefficient. This diffusion coefficient can be translated into the hydrodynamic radius of the particle. The instrument also counts the number of individual particles counted in the analysis to give particle concentration.
LNP compositions are analyzed for average particle size, polydispersity index (pdi), total RNA content, encapsulation efficiency of RNA, and zeta potential. LNP compositions may be further characterized by lipid analysis, AF4-MALS, NTA, and/or cryo-EM. Average particle size and polydispersity are measured by dynamic light scattering (DLS) using a Malvern Zetasizer DLS instrument. LNP samples were diluted with PBS buffer prior to being measured by DLS. Z-average diameter which is an intensity-based measurement of average particle size was reported along with number average diameter and pdi. A Malvern Zetasizer instrument is also used to measure the zeta potential of the LNP. Samples are diluted 1:17 (50 μL into 800 μL) in 0.1×PBS, pH 7.4 prior to measurement.

[3] = RNA encapsulation efficiency of LNP (Ribogreen fluorescence assay); format: physicochemical; conditions: LNP with the compound as amine lipid
Method: A fluorescence-based assay (Ribogreen®, ThermoFisher Scientific) is used to determine total RNA concentration and free RNA. Encapsulation efficiency is calculated as (Total RNA—Free RNA)/Total RNA. LNP samples are diluted appropriately with 1× TE buffer containing 0.2% Triton-X 100 to determine total RNA or 1× TE buffer to determine free RNA. Standard curves are prepared by utilizing the starting RNA solution used to make the compositions and diluted in 1× TE buffer+/−0.2% Triton-X 100. Diluted RiboGreen® dye (according to the manufacturer's instructions) is then added to each of the standards and samples and allowed to incubate for approximately 10 minutes at room temperature, in the absence of light. A SpectraMax M5 Microplate Reader (Molecular Devices) is used to read the samples with excitation, auto cutoff and emission wavelengths set to 488 nm, 515 nm, and 525 nm respectively. Total RNA and free RNA are determined from the appropriate standard curves.
Encapsulation efficiency is calculated as (Total RNA−Free RNA)/Total RNA. The same procedure may be used for determining the encapsulation efficiency of a DNA-based cargo component. For single-strand DNA, Oligreen Dye may be used and for double-strand DNA, Picogreen Dye.

mouse TTR = assay: Serum TTR ELISA in mice after LNP delivery; format: in vivo; conditions: mouse serum, relative to TSS control of same experiment
Method: For studies measuring in vivo editing in liver, CD-1 female mice were dosed at 0.1 mpk unless otherwise noted. Animals were euthanized at 6 or 7 days by exsanguinationvia cardiac puncture under isoflourane anesthesia. Liver tissue was collected from each animal for DNA extraction and analysis. Blood was collected into serum separator tubes or into tubes containing buffered sodium citrate for plasma as described herein. Cohorts of mice were measured for editing by Next-Generation Sequencing (NGS).
Blood was collected and the serum was isolated as indicated. The total mouse TTR serum levels were determined using a Mouse Prealbumin (Transthyretin) ELISA Kit (Aviva Systems Biology, Cat. OKIA00111). Briefly, sera were serial diluted with kit sample diluent, e.g. to a final dilution of 10,000-fold and/or 2,500-fold. The diluted sample was then added to the ELISA plates and the assay was then carried out according to directions. Serum TTR data from treatment groups are expressed as a percentage of vehicle control levels.

[4] = Expt. 2, composition ratio (mol %) 50/9/39.5/3 for Cmpnd 49, 50/9/39.5/1.5 for the others
[5] = Expt. 8, composition ratio (mol %) 50/9/38/3 for Cmpnd 49, 50/10/38.5/1.5 for the others
[6] = Expt. 1, composition ratio (mol %) 50/9/38/3 for Cmpnd 49, 50/10/38.5/1.5 for the others
[7] = Expt. 6, composition ratio (mol %) 50/9/38/3 for Cmpnd 49, 50/10/38.5/1.5 for the others
[8] = Expt. 10, composition ratio (mol %) 50/9/38/3 for Cmpnd 49, 50/10/38.5/1.5 for the others

CCCCC/C=C\C/C=C\CCCCCCCC(=O)OCC(COC(=O)CCCCCCC/C=C\C/C=C\CCCCC)OC(=O)CCC(CCCCCC)OC(=O)NCC1CCCN1C (stereo not shown) [Compound 44, 2-((4-((((1-methylpyrrolidin-2-yl)methyl)carbamoyl)oxy)decanoyl)oxy)propane-1,3-diyl (9Z,9′Z,12Z,12′Z)-bis(octadeca-9,12-dienoate)]
pKa [1]: 6.45 | Num Ave Size (nm) [2, 4]: 78.34 nm | PDI [2, 4]: 0.034 | Z-Ave Size (nm) [2, 4]: 97.65 nm | Num Ave Size (nm) [2, 5]: 85.76 nm | PDI [2, 5]: 0.034 | Z-Ave Size (nm) [2, 5]: 104.3 nm | Encapsulation (%) [3, 4]: 99% | Encapsulation (%) [3, 5]: 99% | Serum TTR % TSS (mouse TTR; dose 0.03 mpk): 119.97 % TSS | Serum TTR % TSS (mouse TTR; dose 0.1 mpk): 78.79 % TSS

CCCCC/C=C\C/C=C\CCCCCCCC(=O)OCC(COC(=O)CCCCCCC/C=C\C/C=C\CCCCC)OC(=O)CC(CCCCCCCC)OC(=O)NCCN(C)CC (stereo not shown) [Compound 52, 2-((3-(((2-(ethyl(methyl)amino)ethyl)carbamoyl)oxy)undecanoyl)oxy)propane-1,3-diyl (9Z,9′Z,12Z,12′Z)-bis(octadeca-9,12-dienoate)]
pKa [1]: 6.26 | Num Ave Size (nm) [2, 6]: 74.35 nm | PDI [2, 6]: 0.03 | Z-Ave Size (nm) [2, 6]: 90.75 nm | Encapsulation (%) [3, 6]: 98% | Serum TTR % TSS (mouse TTR; dose 0.1 mpk): 17.31 % TSS

CCCCC/C=C\C/C=C\CCCCCCCC(=O)OCC(COC(=O)CCCCCCC/C=C\C/C=C\CCCCC)COC(=O)CC(CCCCCCCC)OC(=O)NCCN(C)CC (stereo not shown) [Compound 53, 2-(11-methyl-5-octyl-3,7-dioxo-2,6-dioxa-8,11-diazatridecyl)propane-1,3-diyl (9Z,9′Z,12Z,12′Z)-bis(octadeca-9,12-dienoate)]
pKa [1]: 6.29 | Num Ave Size (nm) [2, 6]: 75.76 nm | PDI [2, 6]: 0.05 | Z-Ave Size (nm) [2, 6]: 92.99 nm | Encapsulation (%) [3, 6]: 99% | Serum TTR % TSS (mouse TTR; dose 0.1 mpk): 13.97 % TSS

CCCCC/C=C\C/C=C\CCCCCCCC(=O)OCC(COC(=O)CCCCCCC/C=C\C/C=C\CCCCC)COC(=O)CCCC(CCCCCCCC)OC(=O)NCCN(C)CC (stereo not shown) [Compound 55, 2-(13-methyl-7-octyl-3,9-dioxo-2,8-dioxa-10,13-diazapentadecyl)propane-1,3-diyl (9Z,9′Z,12Z,12′Z)-bis(octadeca-9,12-dienoate)]
pKa [1]: 6.43 | Num Ave Size (nm) [2, 6]: 99.29 nm | PDI [2, 6]: 0.02 | Z-Ave Size (nm) [2, 6]: 117.30 nm | Encapsulation (%) [3, 6]: 97% | Serum TTR % TSS (mouse TTR; dose 0.1 mpk): 72.79 % TSS

CCCCCCCCCCOC(=O)CCCCCCCC(=O)OCC(COC(=O)CCCCCCCC(=O)OCCCCCCCCCC)OC(=O)CCC(CCCCCCCC)OC(=O)NCCN(C)CC (stereo not shown) [Compound 57, 9,9′-didecyl O′1,O1-(2-((4-(((2-(ethyl(methyl)amino)ethyl)carbamoyl)oxy)dodecanoyl)oxy)propane-1,3-diyl) di(nonanedioate)]
pKa [1]: 6.18 | Num Ave Size (nm) [2, 6]: 83.73 nm | PDI [2, 6]: 0.02 | Z-Ave Size (nm) [2, 6]: 100.40 nm | Encapsulation (%) [3, 6]: 98% | Serum TTR % TSS (mouse TTR; dose 0.1 mpk): 24.58 % TSS

CCCCC/C=C\C/C=C\CCCCCCCC(=O)OCC(COC(=O)CCCCCCC/C=C\C/C=C\CCCCC)OC(=O)CC[C@@H](CCCCCCCC)OC(=O)NCCN(C)CC [Compound 87, 2-(((R)-4-(((2-(ethyl(methyl)amino)ethyl)carbamoyl)oxy)dodecanoyl)oxy)propane-1,3-diyl (9Z,9′Z,12Z,12′Z)-bis(octadeca-9,12-dienoate)]
Num Ave Size (nm) [2, 7]: 63 nm | PDI [2, 7]: 0.06 | Z-Ave Size (nm) [2, 7]: 83.00 nm | Encapsulation (%) [3, 7]: 98% | Serum TTR % TSS (mouse TTR; dose 0.03 mpk): 80.21 % TSS | Serum TTR % TSS (mouse TTR; dose 0.1 mpk): 33.33 % TSS

CCCCC/C=C\C/C=C\CCCCCCCC(=O)OCC(COC(=O)CCCCCCC/C=C\C/C=C\CCCCC)OC(=O)CC[C@H](CCCCCCCC)OC(=O)NCCN(C)CC [Compound 88, 2-(((S)-4-(((2-(ethyl(methyl)amino)ethyl)carbamoyl)oxy)dodecanoyl)oxy)propane-1,3-diyl (9Z,9′Z,12Z,12′Z)-bis(octadeca-9,12-dienoate)]
Num Ave Size (nm) [2, 7]: 73 nm | PDI [2, 7]: 0.02 | Z-Ave Size (nm) [2, 7]: 88.00 nm | Encapsulation (%) [3, 7]: 98% | Serum TTR % TSS (mouse TTR; dose 0.03 mpk): 75.06 % TSS | Serum TTR % TSS (mouse TTR; dose 0.1 mpk): 33.45 % TSS

CCCCC/C=C\C/C=C\CCCCCCCC(=O)OCC(COC(=O)CCCCCCC/C=C\C/C=C\CCCCC)OC(=O)CCC(CCCCCCCC)OC(=O)NCCN1CCCCC1 (stereo not shown) [Compound 94, 2-((4-(((2-(piperidin-1-yl)ethyl)carbamoyl)oxy)dodecanoyl)oxy)propane-1,3-diyl (9Z,9′Z,12Z,12′Z)-bis(octadeca-9,12-dienoate)]
pKa [1]: 5.8 | Num Ave Size (nm) [2, 8]: 53 nm | PDI [2, 8]: 0.06 | Z-Ave Size (nm) [2, 8]: 70 nm | Encapsulation (%) [3, 8]: 98%
